Test results published in patent US20050107316A1, “Agent for inhibiting development or progress of proliferative diseases and especially cancer diseases and pharmaceutical composition containing said agent” (priority 2002, published 2005).

Experiments:
Saos-2 cells = experiment: Growth inhibition assay with peptides, Saos-2; format: cell-based, human; conditions: Saos-2, 5 μM
Procedure: (§1) Cancer cell lines HeLa S3 (cervix), MCF-7 (breast) and Saos-2 (osteosarcoma) were grown at 37° C. in 5% CO2 in Ham's F 12, RPMI 1640 and McCoy's 5a medium, respectively containing 10% FBS, 2 mM L-glutamine. To assay for growth inhibition, exponentially growing cells (0.3-2.5×10^4) were seeded into 24-well plates. On the following day cells were incubated with peptides at varying concentrations without serum for 3 h followed by addition of complete medium. On day 3, 6 and 8 cells were treated again and harvested on day 3, 6, 8 and 10 to determine cell numbers using a Hemacytometer. Cell viability was assessed by trypan blue staining. Each experiment was repeated at least three times.

HeLa S3 cells [1] = experiment: Cell cycle analysis and count of mitotic cells after peptide treatment, HeLa S3; format: cell-based, human
Procedure: Cell cycle analysis was performed using a Cycle TEST™ PLUS DNA reagent kit (Becton Dickinson) according to the manufacturer's instructions. Briefly, cells were washed with PBS, treated with RNase A and stained with propidium iodide (PI). The analysis was performed using a Becton Dickinson FACScan flow cytometer. Using the MODFIT LT 2.0 software (Verity Software House, Topsham, Me.) for each individual sample 30,000 cells were analyzed.
(§2) For staining cells were grown in slide flasks and treated with peptides for 24 h. Then, cells were fixed in 4% paraformaldehyde for 30 min, permeabilized in 0.2% Triton X-100 for 20 min and stained with α-tubulin (Serotec/Biozol, Eching) 1:100, polyclonal rabbit PLK1 1:100, or monoclonal α-tubulin (Sigma) 1:100. Stained cells were analyzed with a confocal laser scan microscope (CLSM) or a fluorescence microscope.

HeLa S3 cells [2] = experiment: DNA and tubulin staining of polo-box-treated cells; format: cell-based, human
Procedure: as §2

MCF-7 cells = format: cell-based, human
Procedure: as §1

MCF-7 and HeLa S3 cells = experiment: Annexin V apoptosis assay and DNA staining after peptide treatment; format: cell-based, human
Procedure: Cells were seeded into 6-well plates, allowed to attach overnight, and then treated with different peptides at a concentration of 10 μM. Cells were trypsinized after 16 h and incubated with Annexin V according to the manufacturer's recommendations (Mo Bi Tech).

PLK1 = experiment: In vitro kinase assay with PLK1 purified from Sf 9 cells; format: biochemical, human
Procedure: PLK1 purified from Sf 9 cells was incubated with 0.5-1 μg of PLK1-specific substrates and 2 μCi of […] for 20 min at 37° C. in kinase buffer (20 mM HEPES pH 7.4, 150 mM KCl, 10 mM MgCl2, 1 mM EGTA, 0.5 mM DTT, 5 mM NaF, 0.1 mM Na3VO4 and 100 μM ATP).

HeLa S3 cells [3] = experiment: Growth inhibition assay with peptides, HeLa S3; format: cell-based, human; conditions: HeLa S3, 5 μM
Procedure: as §1

[4] = system: primary epithelial cells (HMEC); experiment: Growth inhibition with peptides, primary epithelial cells; format: cell-based, human

Substance: H-WVSKWVDYSDKYGLGYQLCDRQIKIWFQNRRMKWKK-OH [Peptide P1]
- Inhibitory effect on cell proliferation (Saos-2 cells): intermediate effect
- Increase of mitotic cells compared to control cells (HeLa S3 cells [1]; HeLa S3, 24 h, 5 μM): 3-4 fold
- Percentage of mitotic cells (HeLa S3 cells [1]; HeLa S3, 24 h, 5 μM): 14.7%
- Increase of cells in G2/M compared to control cells (HeLa S3 cells [1]; HeLa S3, day 6, 5 μM): 25-35%
- Chromosomes (HeLa S3 cells [2]): misaligned, not properly segregated and partially condensed
- Concentration with general toxic effect (MCF-7 cells): above 20 μM
- Concentrations that started to inhibit proliferation (MCF-7 cells; MCF-7): above 1 μM
- Range of dose-dependent inhibition of proliferation (MCF-7 cells; MCF-7): 1 to 10 µM
- Inhibitory effect on cell proliferation (MCF-7 cells; MCF-7, 5 μM): most prominent in MCF-7 cells
- Growth behavior (MCF-7 cells; MCF-7, 0.01 to 0.5 μM): did not affect the growth behavior
- Apoptotic cells (MCF-7 and HeLa S3 cells; 10 μM, 16 h annexin V and PI, DNA staining after 1 day): elevated percentage of apoptotic cells
- Apoptotic peak (MCF-7 and HeLa S3 cells; time of treatment): 24 h
- Start of the inhibitory effect (MCF-7 and HeLa S3 cells; time of treatment): 10 h
- Inhibitory effect on phosphorylation (PLK1; 6.25 to 25.0 μM, wild-type compared with mutated form P2): at least two fold more inhibition
- Phosphorylation of substrates by PLK1 (PLK1; 37° C., 20 min): decreased the phosphorylation of substrates clearly
- Inhibitory effect on phosphorylation (PLK1; below 1.56 μM): still exhibited some effect
- Inhibitory effect on cell proliferation (HeLa S3 cells [3]): little inhibition
- Inhibition of proliferation [4]: to a much lower extent than MCF-7 cells
